Here are results for 3 substances from publication PMC10458470 (Molecules, 2023).

Read-outs that look alike come from different tables or passages of the source.

Test in all cases: UV-Vis absorption titration (Kb) and fluorescence quenching (KSV […] ^-1)
Holding throughout (format): binding

The target in assay [1] is T1, human serum albumin (HSA) (Homo sapiens, UniProt P02768).
T1 construct: gene ALB
The note with it: read-out: UV-Vis absorption titration (Kb) and fluorescence quenching (KSV 5.6 × 10^6 M^-1) (converted).

For assay [2], the target named is T1, human serum albumin (HSA). The note with it: read-out: UV-Vis absorption titration (Kb) and fluorescence quenching (KSV 4 × 10^6 M^-1) (converted).
For assay [3], the target named is T1, human serum albumin (HSA). The note with it: read-out: UV-Vis absorption titration (Kb) and fluorescence quenching (KSV 4.6 × 10^6 M^-1) (converted).

T1 sequence (P02768 25-609): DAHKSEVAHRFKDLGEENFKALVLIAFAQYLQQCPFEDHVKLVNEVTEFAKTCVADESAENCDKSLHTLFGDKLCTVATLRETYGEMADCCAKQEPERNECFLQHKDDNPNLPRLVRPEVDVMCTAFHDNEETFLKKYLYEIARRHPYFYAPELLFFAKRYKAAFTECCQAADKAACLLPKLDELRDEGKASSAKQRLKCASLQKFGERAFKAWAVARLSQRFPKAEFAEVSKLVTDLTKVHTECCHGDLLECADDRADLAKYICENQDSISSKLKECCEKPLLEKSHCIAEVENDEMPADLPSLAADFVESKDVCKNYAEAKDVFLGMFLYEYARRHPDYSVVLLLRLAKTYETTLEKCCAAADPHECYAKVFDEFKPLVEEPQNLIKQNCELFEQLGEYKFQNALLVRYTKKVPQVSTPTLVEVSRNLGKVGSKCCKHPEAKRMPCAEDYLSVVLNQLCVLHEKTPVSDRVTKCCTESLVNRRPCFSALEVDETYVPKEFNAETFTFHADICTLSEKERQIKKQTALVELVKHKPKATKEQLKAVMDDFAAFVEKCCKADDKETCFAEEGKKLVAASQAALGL

For the substance [Cu(NTZ)2Cl2] [NTZ-Cu(II)], the Kd in assay [1] is 5.35 µM.
With [Zn(NTZ)2Cl2] [NTZ-Zn(II)], in assay [2], the Kd is 13.4 µM.
On to [Ni(NTZ)2Cl2] [NTZ-Ni(II)], for which the Kd in assay [3] is 20.9 µM.
